For 1 compound, MIC, IC50 and MIC50 results are on record in ChEMBL document CHEMBL1137265, “Macrolactin N, a new peptide deformylase inhibitor produced by Bacillus subtilis” (Bioorg Med Chem Lett, 2006).

For one experiment, the system named is Escherichia coli. The experiment is described as follows: Antibacterial activity against Escherichia coli KCTC 1924 by microdilution broth method. The experiment is classed as functional.
Another experiment deals with T1, Peptide deformylase (Staphylococcus aureus, UniProt P68826).
T1 sequence (P68826 whole entry): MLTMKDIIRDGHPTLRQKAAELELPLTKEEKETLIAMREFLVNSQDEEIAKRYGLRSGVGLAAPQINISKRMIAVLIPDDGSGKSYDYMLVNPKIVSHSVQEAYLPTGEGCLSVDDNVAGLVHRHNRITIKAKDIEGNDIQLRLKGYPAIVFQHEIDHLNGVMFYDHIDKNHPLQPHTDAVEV
The experiment is described as follows: Inhibition of Staphylococcus aureus peptide deformylase in presence of substrate f-MAS.

The next experiment concerns Staphylococcus aureus. The experiment is described as follows: Antibacterial activity against Staphylococcus aureus RN4220 by microdilution broth method. It is filed as functional.
The test system of the next experiment is Bacillus subtilis. Briefly: Antibacterial activity against Bacillus subtilis KCTC 1021 by microdilution broth method. It is filed as functional.

pIC50: −log10 of the molar value. ≈ marks a conversion by molar mass, not a printed value.

For the compound `CC1CCC/C=C/CCC(=O)CCC/C=C\C=C\[C@@H](O)C/C=C/C=C\C(=O)O1` (some centres undefined), in the experiment with Escherichia coli, it took 100 µg/mL (≈ 259 µM) to inhibit growth (MIC). Also, at Peptide deformylase, the pIC50 was 5.12. Also, the MIC50 with Staphylococcus aureus and with Bacillus subtilis was 100 µg/mL (≈ 259 µM) each time.
